Laboratory results reported in ChEMBL document CHEMBL4041544, “Discovery of new selective glucocorticoid receptor agonist leads” (Bioorg Med Chem Lett, 2017).

What was measured:
Glucocorticoid receptor [1] = biological target: T1, Glucocorticoid receptor (Homo sapiens, UniProt P04150); assay: Transrepression activity at glucocorticoid receptorin human HeLa cells assessed as inhibition of TPA-induced collagenase promoter activity by luciferase reporter gene assay; type: cell-based
T1 sequence (P04150 whole entry): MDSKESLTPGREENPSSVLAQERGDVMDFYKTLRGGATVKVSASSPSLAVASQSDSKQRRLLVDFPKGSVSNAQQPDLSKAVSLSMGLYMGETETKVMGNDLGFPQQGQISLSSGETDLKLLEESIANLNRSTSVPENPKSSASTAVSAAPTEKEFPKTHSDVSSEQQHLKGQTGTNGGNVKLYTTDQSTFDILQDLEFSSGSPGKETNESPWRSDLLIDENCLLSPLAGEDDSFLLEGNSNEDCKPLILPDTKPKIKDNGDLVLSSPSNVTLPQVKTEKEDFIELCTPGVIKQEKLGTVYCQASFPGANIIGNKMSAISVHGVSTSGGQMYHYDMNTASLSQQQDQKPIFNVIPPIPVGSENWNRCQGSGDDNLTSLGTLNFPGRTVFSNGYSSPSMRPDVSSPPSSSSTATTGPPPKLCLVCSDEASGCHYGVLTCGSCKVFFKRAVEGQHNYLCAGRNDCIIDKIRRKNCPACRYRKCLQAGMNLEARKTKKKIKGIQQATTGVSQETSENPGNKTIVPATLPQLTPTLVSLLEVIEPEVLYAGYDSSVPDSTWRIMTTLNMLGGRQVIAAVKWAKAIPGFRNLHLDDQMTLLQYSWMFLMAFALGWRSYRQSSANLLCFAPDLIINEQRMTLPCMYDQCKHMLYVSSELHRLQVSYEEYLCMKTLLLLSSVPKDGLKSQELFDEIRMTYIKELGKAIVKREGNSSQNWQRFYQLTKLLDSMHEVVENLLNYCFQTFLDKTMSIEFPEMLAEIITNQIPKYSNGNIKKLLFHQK

Glucocorticoid receptor [2] = biological target: T1, Glucocorticoid receptor; assay: Binding affinity to recombinant human glucocorticoid receptor expressed in baculovirus infected sf9 cells
Glucocorticoid receptor [3] = biological target: T1, Glucocorticoid receptor; assay: Transactivation activity at glucocorticoid receptor in human HeLa cells assessed as induction of MMTV promoter activity by luciferase reporter gene assay; type: cell-based
[4] = biological target: T2, Mineralocorticoid receptor (Homo sapiens, UniProt P08235); assay: Binding affinity to recombinant human mineralocorticoid receptor expressed in baculovirus infected sf9 cells
T2 sequence (P08235 whole entry): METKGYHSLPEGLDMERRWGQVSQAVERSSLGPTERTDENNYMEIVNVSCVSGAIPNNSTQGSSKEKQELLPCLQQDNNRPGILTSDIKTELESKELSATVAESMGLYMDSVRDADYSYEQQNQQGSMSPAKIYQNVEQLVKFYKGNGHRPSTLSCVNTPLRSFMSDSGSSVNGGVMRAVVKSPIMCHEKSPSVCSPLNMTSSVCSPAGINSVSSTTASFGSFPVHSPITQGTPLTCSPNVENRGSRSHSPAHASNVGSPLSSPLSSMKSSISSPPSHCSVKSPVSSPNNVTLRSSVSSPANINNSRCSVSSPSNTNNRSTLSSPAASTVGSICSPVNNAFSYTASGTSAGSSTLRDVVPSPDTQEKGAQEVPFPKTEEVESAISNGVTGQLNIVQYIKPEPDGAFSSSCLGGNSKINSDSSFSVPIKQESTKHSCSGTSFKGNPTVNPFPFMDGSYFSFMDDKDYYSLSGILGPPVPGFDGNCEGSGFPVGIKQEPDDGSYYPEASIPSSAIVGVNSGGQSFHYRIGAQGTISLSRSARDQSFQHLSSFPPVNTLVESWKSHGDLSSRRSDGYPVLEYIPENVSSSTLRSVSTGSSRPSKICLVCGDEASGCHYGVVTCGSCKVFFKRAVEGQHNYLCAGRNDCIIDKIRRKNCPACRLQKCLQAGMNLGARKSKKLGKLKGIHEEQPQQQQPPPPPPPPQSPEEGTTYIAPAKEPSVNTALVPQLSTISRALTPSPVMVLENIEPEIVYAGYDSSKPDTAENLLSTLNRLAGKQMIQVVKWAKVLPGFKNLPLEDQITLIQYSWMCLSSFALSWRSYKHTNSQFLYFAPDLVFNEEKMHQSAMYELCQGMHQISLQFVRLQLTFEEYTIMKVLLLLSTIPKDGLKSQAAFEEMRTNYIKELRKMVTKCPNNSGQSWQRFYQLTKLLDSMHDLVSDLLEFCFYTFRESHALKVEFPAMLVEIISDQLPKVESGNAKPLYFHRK

Androgen receptor = biological target: T3, Androgen receptor (Homo sapiens, UniProt P10275); assay: Binding affinity to recombinant human androgen receptor expressed in baculovirus infected sf9 cells
T3 sequence (P10275 whole entry): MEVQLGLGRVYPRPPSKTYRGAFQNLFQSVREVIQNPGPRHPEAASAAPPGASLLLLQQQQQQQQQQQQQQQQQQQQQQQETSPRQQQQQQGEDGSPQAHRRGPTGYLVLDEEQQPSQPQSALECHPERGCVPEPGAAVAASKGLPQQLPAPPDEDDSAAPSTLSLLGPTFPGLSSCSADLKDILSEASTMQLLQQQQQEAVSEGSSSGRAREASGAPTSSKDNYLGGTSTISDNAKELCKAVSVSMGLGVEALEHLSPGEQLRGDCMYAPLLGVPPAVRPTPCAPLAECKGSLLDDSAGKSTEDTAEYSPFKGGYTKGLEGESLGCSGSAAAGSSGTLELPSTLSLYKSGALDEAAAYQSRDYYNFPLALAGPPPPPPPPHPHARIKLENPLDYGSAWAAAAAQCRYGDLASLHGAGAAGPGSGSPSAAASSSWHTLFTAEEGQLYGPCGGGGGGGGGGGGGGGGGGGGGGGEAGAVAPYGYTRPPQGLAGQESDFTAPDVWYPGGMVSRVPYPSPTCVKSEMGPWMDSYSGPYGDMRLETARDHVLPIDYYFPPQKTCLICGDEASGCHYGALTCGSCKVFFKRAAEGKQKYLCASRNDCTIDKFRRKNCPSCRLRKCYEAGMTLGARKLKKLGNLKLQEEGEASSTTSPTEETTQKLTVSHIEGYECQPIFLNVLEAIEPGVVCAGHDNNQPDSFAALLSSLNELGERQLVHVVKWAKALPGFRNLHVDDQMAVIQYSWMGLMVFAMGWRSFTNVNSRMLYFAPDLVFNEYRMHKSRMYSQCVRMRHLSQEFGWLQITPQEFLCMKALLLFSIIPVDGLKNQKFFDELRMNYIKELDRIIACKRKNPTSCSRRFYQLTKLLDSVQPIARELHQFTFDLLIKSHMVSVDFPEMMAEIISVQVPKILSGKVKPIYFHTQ

Glucocorticoid receptor [5] = biological target: T1, Glucocorticoid receptor; assay: Transrepression activity at glucocorticoid receptor in human THP1 cells assessed as receptor-mediated anti-inflammatory activity by measuring inhibition of LPS-induced IL-8 production; type: cell-based
Progesterone receptor = biological target: T4, Progesterone receptor (Homo sapiens, UniProt P06401); assay: Binding affinity to recombinant human progesterone receptor expressed in baculovirus infected sf9 cells
T4 sequence (P06401 whole entry): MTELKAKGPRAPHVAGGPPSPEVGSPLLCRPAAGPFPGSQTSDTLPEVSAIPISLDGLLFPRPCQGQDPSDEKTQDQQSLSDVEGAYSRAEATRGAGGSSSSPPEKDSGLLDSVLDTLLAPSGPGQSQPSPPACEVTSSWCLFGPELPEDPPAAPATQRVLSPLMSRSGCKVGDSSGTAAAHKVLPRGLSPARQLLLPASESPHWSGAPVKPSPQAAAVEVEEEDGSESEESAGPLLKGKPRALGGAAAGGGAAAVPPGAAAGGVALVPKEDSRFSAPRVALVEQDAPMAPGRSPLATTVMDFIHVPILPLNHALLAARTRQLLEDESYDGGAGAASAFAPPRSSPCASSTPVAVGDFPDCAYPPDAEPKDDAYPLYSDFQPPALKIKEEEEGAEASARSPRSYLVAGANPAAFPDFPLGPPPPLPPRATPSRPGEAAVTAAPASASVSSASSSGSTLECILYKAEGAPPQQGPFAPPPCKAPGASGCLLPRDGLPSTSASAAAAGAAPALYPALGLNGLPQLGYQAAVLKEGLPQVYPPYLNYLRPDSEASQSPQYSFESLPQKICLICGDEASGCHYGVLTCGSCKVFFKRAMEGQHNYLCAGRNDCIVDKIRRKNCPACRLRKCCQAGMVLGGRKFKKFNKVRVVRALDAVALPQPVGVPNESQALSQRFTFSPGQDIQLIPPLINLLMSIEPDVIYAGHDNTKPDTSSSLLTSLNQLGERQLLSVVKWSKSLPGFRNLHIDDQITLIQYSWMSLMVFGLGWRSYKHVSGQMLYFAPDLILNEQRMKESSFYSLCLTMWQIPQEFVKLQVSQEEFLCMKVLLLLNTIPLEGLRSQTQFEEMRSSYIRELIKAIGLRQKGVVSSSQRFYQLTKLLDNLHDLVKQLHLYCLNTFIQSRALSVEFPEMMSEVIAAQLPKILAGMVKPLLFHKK

[6] = Stability in human liver microsomes assessed as drug recovery after 30 mins; type: ADME, microsome; settings: read-out: Drug recovery
Rattus norvegicus [7] = assay: Anti-inflammatory activity in po dosed Brown Norway rat assessed as inhibition of TMA-induced ear edema; type: functional
Rattus norvegicus [8] = assay: Anti-inflammatory activity in Brown Norway rat assessed as inhibition of TMA-induced ear edema at 30 mg/kg, po relative to control; type: functional
Rattus norvegicus [9] = assay: Anti-inflammatory activity in po dosed Wistar rat assessed as inhibition of croton oil-induced ear edema; type: functional
Rattus norvegicus [10] = assay: Anti-inflammatory activity in Wistar rat assessed as inhibition of croton oil-induced ear edema at 30 mg/kg, po relative to control; type: functional

Compound | IC50 (Glucocorticoid receptor [1]) [nM] | IC50 (Glucocorticoid receptor [2]) [nM] | pEC50 (Glucocorticoid receptor [3]) | IC50 [4] [nM] | IC50 (Androgen receptor) [nM] | IC50 (Glucocorticoid receptor [5]) [nM] | IC50 (Progesterone receptor) [nM] | remaining at 0.5 h [6] [%] | ED50 (Rattus norvegicus [7]) [mg/kg] | Imax (Rattus norvegicus [8]) [%] | ED50 (Rattus norvegicus [9]) [mg/kg] | Imax (Rattus norvegicus [10]) [%]
Cc1ccc2c(N[C@H]3c4ccc(F)c(O)c4[C@H](C)C[C@]3(O)C(F)(F)F)cccc2n1 | 20 | 15.8 | 7.4 | > 1000 | > 1000 | 20 | > 1000 |  |  |  |  | 
CCSC[C@@](O)([C@@H](Nc1cccc2nc(C)ccc12)c1ccc(OC)c(F)c1Cl)C(F)(F)F |  |  |  | > 1000 | > 1000 |  | 794 |  |  |  |  | 
CC(C)(CC(O)(CNc1cccc2c(=O)[nH]ccc12)C(F)(F)F)c1cccc(F)c1O (stereo not given) | 3.98 | 2.51 | 7.6 | > 1000 | > 1000 | 3.98 | 200 | 13 |  |  |  | 
CC[C@@H]1C[C@](O)(C(F)(F)F)[C@@H](Nc2cccc3[nH]c(=O)ccc23)c2cc(F)c(F)c(O)c21 |  |  |  | > 1000 | > 1000 |  | > 1000 |  |  |  |  | 
C[C@@H]1C[C@H]2[C@@H]3CCC4=CC(=O)C=C[C@]4(C)[C@@]3(F)[C@@H](O)C[C@]2(C)[C@@]1(O)C(=O)CO [DEXAMETHASONE] |  |  |  |  |  |  | > 1000 |  |  |  |  | 
Cc1ncc2c(N[C@H]3c4ccc(F)c(O)c4C(C)(C)C[C@]3(O)C(F)(F)F)cc(F)cc2n1 | 39.8 | 126 | 6.8 | > 1000 | > 1000 | 39.8 | > 1000 |  |  |  |  | 
C=C(C)C[C@@](O)([C@@H](Nc1cccc2c(=O)[nH]ccc12)c1cc(Br)ccc1O)C(F)(F)F (racemic) | 20 | 63.1 | 6.8 | > 1000 | > 1000 | 20 | 631 |  |  |  |  | 
Cc1ccc2c(NCC(O)(CC(C)(C)c3cc(F)ccc3O)C(F)(F)F)cccc2n1 (stereo not given) |  |  | 7.9 |  |  |  |  | 31 |  |  |  | 
CC[C@@H]1C[C@](O)(C(F)(F)F)[C@@H](Nc2cccc3nc(C)ccc23)c2ccc(F)c(O)c21 | 5.01 | 12.6 | 7.9 | > 1000 | > 1000 | 5.01 | 794 | 86 |  |  |  | 
C[C@]12C=CC(=O)C=C1CC[C@@H]1[C@@H]2[C@@H](O)C[C@@]2(C)[C@H]1CC[C@]2(O)C(=O)CO [PREDNISOLONE] |  |  |  |  |  |  |  |  | 6.7 | 107 | 15.7 | 83
CC1(C)C[C@](O)(C(F)(F)F)[C@@H](Nc2cccc3[nH]c(=O)ccc23)c2ccc(F)c(O)c21 | 15.8 | 15.8 | 7.6 | > 1000 | 794 | 15.8 | 794 |  |  |  |  | 
CC1(C)C[C@](O)(C(F)(F)F)[C@@H](Nc2cccc3c(=O)[nH]ccc23)c2ccc(F)c(O)c21 (racemic) | 6.31 | 20 | 7.9 | > 1000 | 316 | 6.31 | 794 | 48 |  |  |  | 
